Assay [1] addresses Myxococcus stipitatus imine reductase (MsIRED) variant MsIRED-c (best previously described NADH-dependent variant, 5 residue substitutions) (Myxococcus stipitatus, UniProt L7U9F5). Briefly: Kinetics of MsIRED-c (best previously described NADH-dependent variant), 2-methylpyrroline reduction with NADH. It is filed as biochemical. To be noted: cofactor NADH (0.25 mM); enzyme 1.2675 uM.

Assay [2] addresses Enterobacter cloacae nitroreductase (EntNFSB) variant EntNFSB-s1, S40A/T41I/F124A, SEQ ID NO: 38 (Enterobacter cloacae, UniProt Q01234, F124A/S40A/T41I). Briefly: Kinetics of evolved EntNFSB-s1, 2-nitrobenzoic acid reduction with NADH. As to conditions: cofactor NADH; enzyme 1 uM.
The target in assay [3] is Enterobacter cloacae nitroreductase (EntNFSB) variant EntNFSB-s2, T41L/Y68L/F124L, SEQ ID NO: 40 (Enterobacter cloacae, UniProt Q01234, F124L/T41L/Y68L). The assay is classed as biochemical. To be noted: cofactor NADH; enzyme 1 uM.
Chain of Enterobacter cloacae nitroreductase (EntNFSB) variant EntNFSB-s2, T41L/Y68L/F124L, SEQ ID NO: 40 (Q01234 whole entry T41L/Y68L/F124L): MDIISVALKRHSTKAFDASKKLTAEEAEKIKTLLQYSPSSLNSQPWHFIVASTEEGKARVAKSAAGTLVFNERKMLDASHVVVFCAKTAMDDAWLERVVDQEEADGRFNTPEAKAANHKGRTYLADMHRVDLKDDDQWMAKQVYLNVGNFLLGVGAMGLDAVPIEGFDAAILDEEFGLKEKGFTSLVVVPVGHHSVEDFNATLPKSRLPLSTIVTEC
A further assay relates to AL cells. Briefly: 1H NMR analysis of fermentation broth of anaerobic cultures. The assay is classed as cell-based, Escherichia coli. To be noted: no exogenous substrate.
For a further assay, the system named is LS5 strain. Briefly: Metabolic complementation (anaerobic growth) of quadruple mutant. The assay is classed as cell-based, Escherichia coli. How it is done:
(§1) The LS1 mutant strain and the parental BW25113 strain were transformed with the desired plasmid and overnight pre-cultures were grown aerobically in 15 mL Falcon tubes with M9 media (0.4% glucose). These pre-cultures were used to inoculate 10 mL Hungate tubes with M9 medium (0.4% glucose) supplemented with 100 μg/mL ampicillin, 1 mM IPTG and with or without the specific substrate of the dehydrogenase under anaerobic conditions at 37° C. Metabolic complementation was assessed by measuring the optical density at 600 nm every two hours during daytime.
Since in the triple mutants the non-deleted transhydrogenase could still be supporting anaerobic growth under anaerobic fermentation conditions when complemented with an NADPH-dependent oxidoreductase by generating oxidized NAD, the inventors generated a quadruple mutant where adhE, ldhA, sthA and pntA genes were deleted (LS5 strain, FIG. 11).

Assay [4] deals with LS1 strain (ΔadhE ΔldhA double mutant) cells. Briefly: Metabolic complementation (anaerobic growth recovery) of LS1/AL strain. The assay is classed as cell-based, Escherichia coli. To be noted: LS1, no exogenous substrate. The procedure:
as §1

Chain of Enterobacter cloacae nitroreductase (EntNFSB) variant EntNFSB-s1, S40A/T41I/F124A, SEQ ID NO: 38 (Q01234 whole entry S40A/T41I/F124A): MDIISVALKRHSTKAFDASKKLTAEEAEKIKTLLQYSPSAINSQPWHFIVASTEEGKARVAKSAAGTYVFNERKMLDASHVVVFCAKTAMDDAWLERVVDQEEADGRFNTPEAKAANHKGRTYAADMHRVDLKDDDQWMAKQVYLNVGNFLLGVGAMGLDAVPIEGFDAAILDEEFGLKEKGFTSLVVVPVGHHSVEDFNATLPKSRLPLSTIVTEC

For orientation: Km means the substrate concentration at which the rate is half of its maximum. As a reminder, the kcat is the maximal rate divided by the concentration of active sites. Take `CC1=NCCC1` [2-methylpyrroline, 2-methyl-1-pyrroline]: in assay [1], the Km is 41.8 mM and the kcat turned out to be 1.993 s⁻¹.
On to `O=C(O)c1ccccc1[N+](=O)[O-]` [2-nitrobenzoic acid], for which the kcat in assay [2] came to 0.0195 s⁻¹.
For `O=[N+]([O-])c1ccc(CO)cc1` [4-nitrobenzyl alcohol], in assay [3], the Km is 1.11 mM and the kcat was determined as 0.0725 s⁻¹.
With “pLS1: pUC19 with ADH NADH-dependent from Escherichia coli (adhE)”, in the assay with AL cells, the Acetate concentration stood at 12.1, the Ethanol concentration amounted to 13.8, the Formate concentration stood at 20.7 and the Lactate concentration was 0. Besides, the Succinate concentration in the assay on AL cells worked out at 5.2. The anaerobic growth entry in the assay on LS5 strain is given as “anaerobic growth is restored”. In addition, the anaerobic growth recovery result in assay [4] is recorded as “restoration of ability to grow anaerobically”.

Values taken from patent US20210277441A1, “METHOD OF SELECTING A POLYPEPTIDE OF INTEREST” (IMPERIAL COLLEGE INNOVATIONS LIMITED, priority 2018, published 2021).
